# Test results: patent publication US8343998B2, “Triazolothiadiazole inhibitor of c-Met protein kinase” (Vertex Pharmaceuticals Incorporated, priority 2008, dated 2013)
# Values joined by “and” are separate entries in the source; they are usually repeats but may differ in a detail not shown here. Equal values may be shown once. Read-outs that look alike come from different tables or passages of the source.
# How the values were obtained:
# [1] = Solubility of compound 1 crystalline free base in different solvents, by HPLC; type: physicochemical; conditions: thermodynamic from solid, crystalline free base slurry, room temperature, 4 day solution, read-out: Conc. FB (solubility)
# Experimental: About 10 mg of compound 1, crystalline free base (FB), was loaded into a vial with a magnetic stir bar. About 150 μL of solvent were added to each vial. If compound 1 dissolved completely, more solid was added to the vial and stirring of the resulting slurry was continued at room temperature. The 4 day solution was filtered off using centrifuge filters and diluted in methanol to obtain solubility data by HPLC analysis. X-ray diffraction data of the crystals in the slurry were collected after 4 and 14 days.
# c-Met = target: T1, c-Met (Homo sapiens, UniProt P08581); experiment: Inhibition of c-Met activity in Snu5 gastric carcinoma cells (Snu5-AP1-Luc-Pest luciferase signal); type: cell-based; conditions: 6 hours, luciferase luminescence
# T1 construct: is a human gastric carcinoma known to overexpress c-Met, which is constitutively active; host or cells: Snu5-AP1-Luc-Pest (Snu5 transduced with an AP1-luciferase-PEST reporter)
# T1 sequence (P08581 25-1390): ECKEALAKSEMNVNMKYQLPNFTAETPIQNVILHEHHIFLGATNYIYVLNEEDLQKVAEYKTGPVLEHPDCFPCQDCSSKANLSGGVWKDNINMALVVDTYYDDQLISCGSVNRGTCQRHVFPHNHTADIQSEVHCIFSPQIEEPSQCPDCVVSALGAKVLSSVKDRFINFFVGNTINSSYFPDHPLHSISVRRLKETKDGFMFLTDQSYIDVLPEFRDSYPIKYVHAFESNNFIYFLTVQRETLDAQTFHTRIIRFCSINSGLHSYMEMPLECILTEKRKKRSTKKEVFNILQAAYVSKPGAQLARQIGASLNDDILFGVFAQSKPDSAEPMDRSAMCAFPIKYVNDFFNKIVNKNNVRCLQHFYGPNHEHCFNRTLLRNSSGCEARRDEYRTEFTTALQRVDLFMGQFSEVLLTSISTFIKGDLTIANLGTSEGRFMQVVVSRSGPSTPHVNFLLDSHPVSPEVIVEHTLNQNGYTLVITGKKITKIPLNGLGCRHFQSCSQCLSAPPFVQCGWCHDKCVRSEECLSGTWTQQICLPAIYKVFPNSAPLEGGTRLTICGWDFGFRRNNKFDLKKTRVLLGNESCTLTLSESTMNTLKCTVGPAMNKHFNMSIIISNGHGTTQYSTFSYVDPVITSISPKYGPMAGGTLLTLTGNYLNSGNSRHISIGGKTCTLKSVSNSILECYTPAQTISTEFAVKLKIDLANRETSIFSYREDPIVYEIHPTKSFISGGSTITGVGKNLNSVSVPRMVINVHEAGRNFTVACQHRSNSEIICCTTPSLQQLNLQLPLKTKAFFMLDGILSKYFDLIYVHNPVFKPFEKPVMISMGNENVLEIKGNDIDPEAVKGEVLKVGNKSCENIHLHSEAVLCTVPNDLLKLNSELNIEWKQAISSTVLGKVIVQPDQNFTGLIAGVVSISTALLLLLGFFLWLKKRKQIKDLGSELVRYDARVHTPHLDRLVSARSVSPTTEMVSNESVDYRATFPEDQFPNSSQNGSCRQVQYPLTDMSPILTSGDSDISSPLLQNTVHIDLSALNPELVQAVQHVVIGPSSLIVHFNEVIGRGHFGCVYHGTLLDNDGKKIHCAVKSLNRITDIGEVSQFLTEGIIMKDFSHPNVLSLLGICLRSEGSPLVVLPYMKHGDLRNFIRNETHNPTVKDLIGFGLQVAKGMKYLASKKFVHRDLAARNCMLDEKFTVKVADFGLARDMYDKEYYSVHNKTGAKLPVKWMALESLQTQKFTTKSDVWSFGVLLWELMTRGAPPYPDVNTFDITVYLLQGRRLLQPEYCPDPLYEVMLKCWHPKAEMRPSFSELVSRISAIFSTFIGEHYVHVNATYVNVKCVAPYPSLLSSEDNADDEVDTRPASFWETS
# Source text: Compound 1 was also screened for their ability to inhibit the Luciferase-induced signal in an engineered Snu5 cell line. Snu5 [obtained from American Type Culture Collection (Catalog number CRL-5973)] is a human gastric carcinoma known to overexpress c-Met, which is constitutively active. […] The constitutively active c-Met activates cellular pathways (principally MAP kinase), resulting in AP-1-induced transcription of luciferase-PEST and translation into the final product, the activity of which is quantifiable as a chemiluminescent readout upon the addition of luciferin (Steady-Glo from Promega.). Residual luminescence is strongly correlated to the inhibition of c-Met. A stable cell line was obtained by selecting the new cell line (Snu5-AP1-Luc-Pest) with puromycin. The cells were grown in complete media [Iscove's media (Invitrogen) containing 10% fetal bovine serum (FBS, Hyclone) and penicillin/gentamycin (Invitrogen)]. Compounds of the invention were dissolved in DMSO to make 10 mM initial stock solutions. Serial dilutions in DMSO were then made and transferred to complete medium to make a 10× solution. The Snu5-AP1-Luc-Pest cells were counted and diluted to 200,000-cells/mL solution. […] The plate was read on a 1450 Microbeta Liquid Scintillation and Luminescence Counter (Perkin-Elmer). The IC50 was calculated using a 4-parameter fit using the graphing software Prism (GraphPad).
# hERG = target: T2, hERG (Homo sapiens, UniProt Q12809); experiment: hERG inhibition assay, whole cell recording in HEK293 cells expressing hERG; type: cell-based; conditions: hERG current, peak tail current
# T2 construct: host or cells: HEK293
# T2 sequence (Q12809 whole entry): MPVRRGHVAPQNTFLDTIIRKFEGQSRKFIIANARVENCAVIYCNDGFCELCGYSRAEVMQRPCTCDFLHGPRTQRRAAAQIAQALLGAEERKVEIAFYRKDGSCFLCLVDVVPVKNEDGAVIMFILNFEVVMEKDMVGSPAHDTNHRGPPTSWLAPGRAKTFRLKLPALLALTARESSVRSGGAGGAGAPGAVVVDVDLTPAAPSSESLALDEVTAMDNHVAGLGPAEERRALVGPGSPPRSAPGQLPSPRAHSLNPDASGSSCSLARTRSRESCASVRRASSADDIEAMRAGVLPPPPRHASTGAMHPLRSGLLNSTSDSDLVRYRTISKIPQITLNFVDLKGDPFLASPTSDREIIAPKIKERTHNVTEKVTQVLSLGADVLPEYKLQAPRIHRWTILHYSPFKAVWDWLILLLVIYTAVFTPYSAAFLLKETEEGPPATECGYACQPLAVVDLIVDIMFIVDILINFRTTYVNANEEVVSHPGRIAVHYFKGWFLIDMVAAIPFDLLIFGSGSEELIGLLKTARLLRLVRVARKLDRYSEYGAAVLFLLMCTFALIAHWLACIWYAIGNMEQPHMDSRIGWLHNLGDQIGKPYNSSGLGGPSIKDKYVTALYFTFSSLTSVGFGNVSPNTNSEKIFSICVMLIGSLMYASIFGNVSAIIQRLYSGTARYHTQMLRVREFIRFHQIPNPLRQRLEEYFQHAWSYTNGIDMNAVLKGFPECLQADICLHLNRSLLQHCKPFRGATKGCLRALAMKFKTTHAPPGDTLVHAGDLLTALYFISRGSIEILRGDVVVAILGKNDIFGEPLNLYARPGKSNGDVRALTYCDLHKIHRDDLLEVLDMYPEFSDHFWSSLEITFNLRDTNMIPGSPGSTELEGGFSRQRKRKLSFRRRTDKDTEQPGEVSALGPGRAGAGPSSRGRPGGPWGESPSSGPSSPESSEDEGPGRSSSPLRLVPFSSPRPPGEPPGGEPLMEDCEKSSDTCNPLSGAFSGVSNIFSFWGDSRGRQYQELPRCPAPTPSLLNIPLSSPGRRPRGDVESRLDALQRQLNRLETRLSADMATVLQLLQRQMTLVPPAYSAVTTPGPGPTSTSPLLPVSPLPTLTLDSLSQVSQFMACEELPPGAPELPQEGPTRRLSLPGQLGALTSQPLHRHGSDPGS
# Experimental: Peak tail current was measured during the 2 second step to −50 mV.
# CYP1A2 = target: T3, CYP1A2 (Homo sapiens, UniProt P05177); experiment: Stability in human recombinant CYP isoform; type: in vitro ADME; conditions: 120 minutes, 50 pmoles CYP/mL, NADPH, two separate studies (two lines)
# T3 construct: host or cells: baculovirus-infected insect cells
# T3 sequence (P05177 1-516): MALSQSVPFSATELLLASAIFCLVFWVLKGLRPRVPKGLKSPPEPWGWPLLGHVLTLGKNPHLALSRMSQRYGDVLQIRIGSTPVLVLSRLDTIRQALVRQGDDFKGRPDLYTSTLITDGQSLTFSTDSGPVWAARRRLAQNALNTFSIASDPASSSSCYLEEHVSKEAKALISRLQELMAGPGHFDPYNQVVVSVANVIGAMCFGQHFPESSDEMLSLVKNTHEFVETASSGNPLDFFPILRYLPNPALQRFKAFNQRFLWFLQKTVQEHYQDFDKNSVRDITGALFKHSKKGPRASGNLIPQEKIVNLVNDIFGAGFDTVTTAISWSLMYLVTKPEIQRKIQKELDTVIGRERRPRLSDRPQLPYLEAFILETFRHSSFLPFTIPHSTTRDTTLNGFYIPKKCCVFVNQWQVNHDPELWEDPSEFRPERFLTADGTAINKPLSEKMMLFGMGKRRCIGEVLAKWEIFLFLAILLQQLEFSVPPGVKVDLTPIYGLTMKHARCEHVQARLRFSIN
# Experimental: (§1) The stability of compound 1 was evaluated in cDNA Baculovirus-insect cell-expressed human cytochrome P450 (CYP) isoforms CYP1A2, CYP2B6, CYP2C9, CYP2C19, CYP2D6, CYP2E1, and CYP3A4. Accordingly, the human recombinant cytochrome P450 isoforms at a final concentration of 50 pmoles of CYP/mL were incubated in phosphate buffer (pH 7.4) with 2.0 mM NADPH and compound 1 at compound concentrations of 1 μM and 10 μM. Sampling was conducted at 0 and 120 minutes and the amount of compound remaining was evaluated by LC/MS/MS analysis.
# CYP2B6 = target: T4, CYP2B6 (Homo sapiens, UniProt P20813); experiment: Stability in human recombinant CYP isoform; type: in vitro ADME; conditions: 120 minutes, 50 pmoles CYP/mL, NADPH, two separate studies (two lines)
# T4 construct: host or cells: baculovirus-infected insect cells
# T4 sequence (P20813 1-491): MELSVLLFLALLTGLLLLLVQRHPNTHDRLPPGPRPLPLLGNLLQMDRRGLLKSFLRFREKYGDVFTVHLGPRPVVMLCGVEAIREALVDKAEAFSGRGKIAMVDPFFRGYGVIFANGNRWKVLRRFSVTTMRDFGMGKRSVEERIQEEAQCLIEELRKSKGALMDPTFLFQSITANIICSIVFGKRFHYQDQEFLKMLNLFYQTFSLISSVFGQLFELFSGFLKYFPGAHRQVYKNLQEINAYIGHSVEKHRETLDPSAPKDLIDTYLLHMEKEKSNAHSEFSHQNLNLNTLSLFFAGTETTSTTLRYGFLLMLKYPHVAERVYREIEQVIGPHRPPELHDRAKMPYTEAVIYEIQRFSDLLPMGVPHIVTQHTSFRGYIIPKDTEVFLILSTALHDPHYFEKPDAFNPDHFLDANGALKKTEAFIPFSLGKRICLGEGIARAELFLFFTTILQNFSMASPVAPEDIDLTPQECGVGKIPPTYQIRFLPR
# Experimental: as §1
# CYP2C19 = target: T5, CYP2C19 (Homo sapiens, UniProt P33261); experiment: Stability in human recombinant CYP isoform; type: in vitro ADME
# T5 construct: host or cells: baculovirus-infected insect cells
# T5 sequence (P33261 whole entry, canonical isoform): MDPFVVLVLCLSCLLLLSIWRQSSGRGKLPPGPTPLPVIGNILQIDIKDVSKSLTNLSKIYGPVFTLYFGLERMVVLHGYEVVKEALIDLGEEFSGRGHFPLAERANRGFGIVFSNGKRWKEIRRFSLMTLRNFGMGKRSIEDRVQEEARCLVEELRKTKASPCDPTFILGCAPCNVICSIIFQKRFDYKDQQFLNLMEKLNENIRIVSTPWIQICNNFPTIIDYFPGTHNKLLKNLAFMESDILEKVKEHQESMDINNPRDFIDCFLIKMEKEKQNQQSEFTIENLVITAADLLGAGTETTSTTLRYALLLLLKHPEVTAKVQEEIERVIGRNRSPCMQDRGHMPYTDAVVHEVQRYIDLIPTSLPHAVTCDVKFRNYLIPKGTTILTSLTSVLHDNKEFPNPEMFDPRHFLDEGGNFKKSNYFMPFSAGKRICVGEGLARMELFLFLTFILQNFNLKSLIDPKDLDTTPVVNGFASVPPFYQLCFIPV
# Experimental: as §1
# CYP2C9 = target: T6, CYP2C9 (Homo sapiens, UniProt P11712); experiment: Stability in human recombinant CYP isoform; type: in vitro ADME; conditions: 120 minutes, 50 pmoles CYP/mL, NADPH, two separate studies (two lines)
# T6 construct: host or cells: baculovirus-infected insect cells
# T6 sequence (P11712 whole entry, canonical isoform): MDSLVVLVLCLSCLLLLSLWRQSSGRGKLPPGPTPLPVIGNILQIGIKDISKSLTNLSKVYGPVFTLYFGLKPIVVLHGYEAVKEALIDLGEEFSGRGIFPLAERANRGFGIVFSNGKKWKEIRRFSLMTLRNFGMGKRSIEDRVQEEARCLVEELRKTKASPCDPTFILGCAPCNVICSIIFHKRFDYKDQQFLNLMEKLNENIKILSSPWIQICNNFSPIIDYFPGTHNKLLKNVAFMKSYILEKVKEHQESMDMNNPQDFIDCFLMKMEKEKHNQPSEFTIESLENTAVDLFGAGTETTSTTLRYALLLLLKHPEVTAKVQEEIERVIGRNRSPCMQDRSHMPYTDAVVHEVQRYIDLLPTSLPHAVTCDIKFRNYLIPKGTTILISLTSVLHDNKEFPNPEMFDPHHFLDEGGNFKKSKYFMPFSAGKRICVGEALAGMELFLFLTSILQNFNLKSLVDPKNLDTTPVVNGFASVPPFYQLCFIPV
# Experimental: as §1
# CYP2D6 = target: T7, CYP2D6 (Homo sapiens, UniProt P10635); experiment: Stability in human recombinant CYP isoform; type: in vitro ADME; conditions: 120 minutes, 50 pmoles CYP/mL, NADPH, two separate studies (two lines)
# T7 construct: host or cells: baculovirus-infected insect cells
# T7 sequence (P10635 whole entry, canonical isoform): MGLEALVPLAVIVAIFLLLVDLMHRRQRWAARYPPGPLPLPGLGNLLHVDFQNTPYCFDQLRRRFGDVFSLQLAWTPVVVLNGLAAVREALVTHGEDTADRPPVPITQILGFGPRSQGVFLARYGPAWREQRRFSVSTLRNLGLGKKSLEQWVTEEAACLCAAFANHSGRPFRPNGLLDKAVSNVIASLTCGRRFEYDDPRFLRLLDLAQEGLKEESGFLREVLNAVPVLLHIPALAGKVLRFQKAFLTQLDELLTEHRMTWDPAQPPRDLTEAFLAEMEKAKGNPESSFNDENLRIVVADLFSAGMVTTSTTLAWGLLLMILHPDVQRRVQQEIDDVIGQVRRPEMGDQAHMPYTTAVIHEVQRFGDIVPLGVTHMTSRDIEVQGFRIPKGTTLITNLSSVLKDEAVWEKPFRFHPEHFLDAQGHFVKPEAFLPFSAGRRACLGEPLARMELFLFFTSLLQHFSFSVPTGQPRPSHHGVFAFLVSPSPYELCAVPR
# Experimental: as §1
# CYP2E1 = target: T8, CYP2E1 (Homo sapiens, UniProt P05181); experiment: Stability in human recombinant CYP isoform; type: in vitro ADME; conditions: 120 minutes, 50 pmoles CYP/mL, NADPH, two separate studies (two lines)
# T8 construct: host or cells: baculovirus-infected insect cells
# T8 sequence (P05181 whole entry, canonical isoform): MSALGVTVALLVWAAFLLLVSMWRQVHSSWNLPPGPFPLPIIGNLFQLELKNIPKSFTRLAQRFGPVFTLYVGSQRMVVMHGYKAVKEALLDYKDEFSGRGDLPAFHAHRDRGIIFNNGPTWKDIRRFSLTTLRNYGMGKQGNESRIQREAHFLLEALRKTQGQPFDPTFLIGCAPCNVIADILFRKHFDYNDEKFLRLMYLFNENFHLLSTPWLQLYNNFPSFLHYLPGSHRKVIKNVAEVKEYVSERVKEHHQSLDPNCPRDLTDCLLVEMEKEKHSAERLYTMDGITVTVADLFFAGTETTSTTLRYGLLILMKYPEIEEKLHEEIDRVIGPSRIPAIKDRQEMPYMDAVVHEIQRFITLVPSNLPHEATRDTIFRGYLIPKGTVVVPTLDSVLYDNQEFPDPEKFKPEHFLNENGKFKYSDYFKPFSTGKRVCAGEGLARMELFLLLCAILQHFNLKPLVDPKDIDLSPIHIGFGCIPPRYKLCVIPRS
# Experimental: as §1
# CYP3A4 = target: T9, CYP3A4 (Homo sapiens, UniProt P08684); experiment: Stability in human recombinant CYP isoform; type: in vitro ADME
# T9 construct: host or cells: baculovirus-infected insect cells
# T9 sequence (P08684 whole entry, canonical isoform): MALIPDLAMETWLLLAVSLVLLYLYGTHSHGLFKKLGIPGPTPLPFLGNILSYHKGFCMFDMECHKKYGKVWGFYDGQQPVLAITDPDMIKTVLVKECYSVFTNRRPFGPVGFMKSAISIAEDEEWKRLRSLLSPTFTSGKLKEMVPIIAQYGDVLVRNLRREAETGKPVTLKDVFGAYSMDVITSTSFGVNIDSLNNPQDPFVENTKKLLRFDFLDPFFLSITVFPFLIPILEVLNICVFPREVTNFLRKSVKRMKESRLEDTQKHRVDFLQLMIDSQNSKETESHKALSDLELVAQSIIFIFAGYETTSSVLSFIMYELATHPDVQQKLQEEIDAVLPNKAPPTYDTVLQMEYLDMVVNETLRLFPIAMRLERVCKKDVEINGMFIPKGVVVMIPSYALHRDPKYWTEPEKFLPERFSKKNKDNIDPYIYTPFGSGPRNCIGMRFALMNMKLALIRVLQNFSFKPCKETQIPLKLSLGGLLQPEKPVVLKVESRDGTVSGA
# Experimental: as §1
# [2] = compound at 10 μM, 120 minutes, 50 pmoles CYP/mL, NADPH, two separate studies (two lines)
smiles,measurement,setting,value
"C[C@@H](c1ccc2ncccc2c1)c1nnc2sc(-c3cnn(C)c3)nn12 [Compound 1, 6-((S)-1-(6-(1-methyl-1H-pyrazol-4-yl)-[1,2,4]triazolo[3,4-b][1,3,4]thiadiazol-3-yl)ethyl)quinoline]",solubility at 4 day,"[1]; organic solvent or mixture, solvent 2-Methyl THF",9.03 mg/mL
same,solubility at 4 day,"[1]; organic solvent or mixture, solvent Acetone",14.3 mg/mL
same,solubility at 4 day,"[1]; organic solvent or mixture, solvent Acetonitrile",9.76 mg/mL
same,solubility at 4 day,"[1]; organic solvent or mixture, solvent Benzyl Alcohol",362 mg/mL
same,solubility at 4 day,"[1]; organic solvent or mixture, solvent Cumene",2.52 mg/mL
same,solubility at 4 day,"[1]; organic solvent or mixture, solvent DCM",116 mg/mL
same,solubility at 4 day,"[1]; organic solvent or mixture, solvent DME",16.1 mg/mL
same,solubility at 4 day,"[1]; organic solvent or mixture, solvent DMSO",67.7 mg/mL
same,solubility at 4 day,"[1]; organic solvent or mixture, solvent Diiodomethane",81 mg/mL
same,solubility at 4 day,"[1]; organic solvent or mixture, solvent Dioxane",36.8 mg/mL
same,solubility at 4 day,"[1]; organic solvent or mixture, solvent EtOAc",7.24 mg/mL
same,solubility at 4 day,"[1]; organic solvent or mixture, solvent Ethanol",42.1 mg/mL
same,solubility at 4 day,"[1]; organic solvent or mixture, solvent Ethylene Glycol",35.3 mg/mL
same,solubility at 4 day,"[1]; organic solvent or mixture, solvent Glycerol",0.69 mg/mL
same,solubility at 4 day,"[1]; organic solvent or mixture, solvent IPA",7.92 mg/mL
same,solubility at 4 day,"[1]; organic solvent or mixture, solvent MEK",14.2 mg/mL
same,solubility at 4 day,"[1]; organic solvent or mixture, solvent MTBE",0.3 mg/mL
same,solubility at 4 day,"[1]; organic solvent or mixture, solvent Methanol",41 mg/mL
same,solubility at 4 day,"[1]; organic solvent or mixture, solvent Nitromethane",44.4 mg/mL
same,solubility at 4 day,[1]; solvent water,0.15 mg/mL
same,IC50,c-Met,0.023 µM
same,IC50,hERG,110 µM
same,% remaining +/− SDEV,CYP1A2; compound at 1 μM,113 +/− 7.2% and 79 +/− 9.6%
same,% remaining +/− SDEV,CYP1A2; compound at 10 μM,96.7 +/− 4.3% and 86 +/− 7.8%
same,% remaining +/− SDEV,CYP2B6; compound at 1 μM,93 +/− 5.4% and 91.7 +/− 10.4%
same,% remaining +/− SDEV,CYP2B6; compound at 10 μM,99 +/− 4.8% and 101 +/− 1.4%
same,% remaining +/− SDEV,CYP2C19; [2],40.3 +/− 2.2% and 34 +/− 3.3%
same,"Metabolism by the CYP isoform, in words",CYP2C19; summary of Table 4,metabolized by both CYP2C19 and CYP3A4 isoforms
same,% remaining +/− SDEV,CYP2C9; compound at 1 μM,128 +/− 22.5% and 96 +/− 2.2%
same,% remaining +/− SDEV,CYP2C9; compound at 10 μM,101 +/− 4.4% and 101 +/− 8.5%
same,% remaining +/− SDEV,CYP2D6; compound at 1 μM,102 +/− 3.6% and 125 +/− 44.2%
same,% remaining +/− SDEV,CYP2D6; compound at 10 μM,94.7 +/− 4.4% and 130 +/− 11%
same,% remaining +/− SDEV,CYP2E1; compound at 1 μM,109 +/− 19% and 164 +/− 54.8%
same,% remaining +/− SDEV,CYP2E1; compound at 10 μM,109 +/− 5.6% and 111 +/− 1.1%
same,% remaining +/− SDEV,CYP3A4; [2],31.8 +/− 2.1% and 56 +/− 14%
same,"Metabolism by the CYP isoform, in words",CYP3A4; summary of Table 4,metabolized by both CYP2C19 and CYP3A4 isoforms
